Numbers after ± are expanded uncertainties.
Settings: Liquid; for mass density: Vibrating tube method; for speed of sound: Pulse-echo method

CCCCCCCCCCCCCCCCCc1ccccc1 [heptadecane, 1-phenyl-]
Settings | mass density, 343.15 K [kg/m3] | mass density, 353.15 K [kg/m3] | mass density, 363.15 K [kg/m3] | mass density, 373.15 K [kg/m3] | speed of sound, 343.15 K [m/s] | speed of sound, 353.15 K [m/s] | speed of sound, 363.15 K [m/s] | speed of sound, 373.15 K [m/s]
100 kPa | – | 814.43 ± 0.84 | 807.8 ± 0.84 | 801.11 ± 0.83 | – | 1255.2 ± 3.3 | 1223.6 ± 3.2 | 1193 ± 3.2
5000 kPa | – | 817.93 ± 0.85 | 811.3 ± 0.84 | 805.07 ± 0.84 | – | – | – | –
10000 kPa | – | 821.35 ± 0.86 | 815.14 ± 0.85 | 808.86 ± 0.85 | – | 1308.6 ± 3.3 | 1278.7 ± 3.3 | 1249.5 ± 3.3
15000 kPa | 830.75 ± 0.87 | 824.69 ± 0.87 | 818.57 ± 0.86 | 812.48 ± 0.86 | – | – | – | –
20000 kPa | 833.93 ± 0.88 | 827.9 ± 0.88 | 821.81 ± 0.87 | 815.93 ± 0.87 | 1387.3 ± 3.5 | 1359.3 ± 3.4 | 1330.3 ± 3.4 | 1302.6 ± 3.3
25000 kPa | 836.75 ± 0.89 | 830.86 ± 0.89 | 824.97 ± 0.88 | 819.17 ± 0.88 | – | – | – | –
30000 kPa | 839.62 ± 0.9 | 833.85 ± 0.9 | 828 ± 0.9 | 822.4 ± 0.89 | 1432.3 ± 3.6 | 1405.3 ± 3.5 | 1378 ± 3.5 | 1351.4 ± 3.4
35000 kPa | 842.4 ± 0.91 | 836.9 ± 0.91 | 830.94 ± 0.91 | 825.42 ± 0.91 | – | – | – | –
40000 kPa | 845.11 ± 0.92 | 839.55 ± 0.92 | 833.81 ± 0.92 | 828.43 ± 0.92 | 1475.5 ± 3.6 | 1448.5 ± 3.6 | 1422.2 ± 3.5 | 1396.8 ± 3.5
45000 kPa | 847.75 ± 0.94 | 842.1 ± 0.93 | 836.5 ± 0.93 | 831.28 ± 0.93 | – | – | – | –
50000 kPa | 850.31 ± 0.95 | 844.78 ± 0.95 | 839.26 ± 0.95 | 834.03 ± 0.95 | 1515.3 ± 3.7 | 1489.5 ± 3.7 | 1464 ± 3.6 | 1439.2 ± 3.6
55000 kPa | 852.73 ± 0.96 | 847.34 ± 0.96 | 841.95 ± 0.96 | 836.72 ± 0.96 | – | – | – | –
60000 kPa | 855.09 ± 0.97 | 849.77 ± 0.97 | 844.41 ± 0.97 | 839.37 ± 0.98 | 1553.3 ± 3.8 | 1528.3 ± 3.7 | 1503.3 ± 3.7 | 1479.7 ± 3.6
70000 kPa | – | – | – | – | 1589.5 ± 3.8 | 1564.8 ± 3.8 | 1541.1 ± 3.7 | 1517.7 ± 3.7
80000 kPa | – | – | – | – | 1624.1 ± 3.9 | 1600.1 ± 3.8 | 1576.4 ± 3.8 | 1553.8 ± 3.8
90000 kPa | – | – | – | – | 1657.2 ± 3.9 | 1633.4 ± 3.9 | 1610.7 ± 3.9 | 1588.6 ± 3.8
100000 kPa | – | – | – | – | 1688 ± 4 | 1665.5 ± 4 | 1643.4 ± 3.9 | 1621.8 ± 3.9
110000 kPa | – | – | – | – | 1719.2 ± 4 | 1696.9 ± 4 | 1674.6 ± 4 | 1653.6 ± 3.9
120000 kPa | – | – | – | – | 1748.7 ± 4.1 | 1726.9 ± 4.1 | 1705 ± 4 | 1684.3 ± 4
130000 kPa | – | – | – | – | 1777.4 ± 4.2 | 1755.8 ± 4.1 | 1734.4 ± 4.1 | 1713.8 ± 4
140000 kPa | – | – | – | – | 1805 ± 4.2 | 1783.8 ± 4.2 | 1763.3 ± 4.1 | 1742.7 ± 4.1
150000 kPa | – | – | – | – | 1832 ± 4.2 | 1811.1 ± 4.2 | 1790 ± 4.2 | 1770.5 ± 4.1

Reference: the NIST ThermoML archive (doi:10.1021/je049973v)
